Numbers after ± are expanded uncertainties.
Legend:
[1] = excess molar enthalpy (molar enthalpy of mixing); xn = mol fraction of the nth substance listed; conditions: 363.2 K, 100 kPa, Liquid, Flow calorimetry
[2] = activity coefficient (dimensionless); of the first substance listed, at infinite dilution; xn = mol fraction of the nth substance listed; conditions: 100 kPa, Liquid, Chromatography, x1 = 0
[3] = Liquid; for vapor or sublimation pressure: 363.2 K, Closed cell (Static) method; for mass density: 101.33 kPa, Vibrating tube method

CCCCCC[n+]1ccccc1.O=S(=O)([N-]S(=O)(=O)C(F)(F)F)C(F)(F)F [1-hexylpyridinium bis(trifluromethylsulfonyl)imide] + CCCCO
[1]
Conditions | excess molar enthalpy [kcal/mol]
x2 = 0.043 | 0.0722 ± 0.00502
x2 = 0.083 | 0.14 ± 0.00789
x2 = 0.157 | 0.258 ± 0.0134
x2 = 0.222 | 0.356 ± 0.0182
x2 = 0.282 | 0.436 ± 0.0222
x2 = 0.384 | 0.55 ± 0.0287
x2 = 0.469 | 0.619 ± 0.0311
x2 = 0.572 | 0.661 ± 0.0335
x2 = 0.655 | 0.652 ± 0.0335
x2 = 0.743 | 0.594 ± 0.0311
x2 = 0.812 | 0.505 ± 0.0263
x2 = 0.868 | 0.399 ± 0.0206
x2 = 0.914 | 0.284 ± 0.0153
x2 = 0.952 | 0.168 ± 0.0108
x2 = 0.985 | 0.0549 ± 0.00741

CCO [ethanol] + CCCCCC[n+]1ccccc1.O=S(=O)([N-]S(=O)(=O)C(F)(F)F)C(F)(F)F
[2]
Conditions | activity coefficient
303.2 K | 1.64 ± 0.094
313.2 K | 1.35 ± 0.075
323.2 K | 1.28 ± 0.071
333.2 K | 1.13 ± 0.061
343.2 K | 0.996 ± 0.053

CCCO [propan-1-ol]
Conditions | vapor or sublimation pressure [kPa]
[3] | 76.56 ± 0.69

CCCCO [butan-1-ol]
Conditions | vapor or sublimation pressure [kPa]
[3] | 34.47 ± 0.54

c1ccccc1 [benzene] + CCCCCC[n+]1ccccc1.O=S(=O)([N-]S(=O)(=O)C(F)(F)F)C(F)(F)F
[2]
Conditions | activity coefficient
303.2 K | 0.639 ± 0.039
313.2 K | 0.655 ± 0.039
323.2 K | 0.627 ± 0.038
333.2 K | 0.657 ± 0.039
343.2 K | 0.605 ± 0.037

C1CCCCC1 [cyclohexane] + CCCCCC[n+]1ccccc1.O=S(=O)([N-]S(=O)(=O)C(F)(F)F)C(F)(F)F
[2]
Conditions | activity coefficient
303.2 K | 5.19 ± 0.31
313.2 K | 4.86 ± 0.29
323.2 K | 4.68 ± 0.28
333.2 K | 4.41 ± 0.26
343.2 K | 4.3 ± 0.26

CCCCCC[n+]1ccccc1.O=S(=O)([N-]S(=O)(=O)C(F)(F)F)C(F)(F)F [1-hexylpyridinium bis(trifluromethylsulfonyl)imide] + CCCO
[1]
Conditions | excess molar enthalpy [kcal/mol]
x2 = 0.052 | 0.0851 ± 0.0055
x2 = 0.1 | 0.165 ± 0.00884
x2 = 0.185 | 0.299 ± 0.0155
x2 = 0.259 | 0.402 ± 0.0206
x2 = 0.324 | 0.483 ± 0.0239
x2 = 0.432 | 0.589 ± 0.0287
x2 = 0.519 | 0.643 ± 0.0335
x2 = 0.621 | 0.661 ± 0.0335
x2 = 0.699 | 0.633 ± 0.0311
x2 = 0.779 | 0.56 ± 0.0287
x2 = 0.841 | 0.462 ± 0.0237
x2 = 0.889 | 0.358 ± 0.0186
x2 = 0.928 | 0.251 ± 0.0141
x2 = 0.961 | 0.146 ± 0.01
x2 = 0.988 | 0.0477 ± 0.00765

CCCO [propan-1-ol] + CCCCCC[n+]1ccccc1.O=S(=O)([N-]S(=O)(=O)C(F)(F)F)C(F)(F)F
[2]
Conditions | activity coefficient
303.2 K | 1.98 ± 0.12
313.2 K | 1.49 ± 0.085
323.2 K | 1.47 ± 0.084
333.2 K | 1.26 ± 0.07
343.2 K | 1.15 ± 0.063

Cc1ccccc1 [toluene] + CCCCCC[n+]1ccccc1.O=S(=O)([N-]S(=O)(=O)C(F)(F)F)C(F)(F)F
[2]
Conditions | activity coefficient
303.2 K | 0.828 ± 0.046
313.2 K | 0.868 ± 0.047
323.2 K | 0.82 ± 0.045
333.2 K | 0.847 ± 0.047
343.2 K | 0.882 ± 0.048

CCCCO [butan-1-ol] + CCCCCC[n+]1ccccc1.O=S(=O)([N-]S(=O)(=O)C(F)(F)F)C(F)(F)F
[2]
Conditions | activity coefficient
303.2 K | 2.74 ± 0.16
313.2 K | 1.72 ± 0.1
323.2 K | 1.59 ± 0.091
333.2 K | 1.42 ± 0.08
343.2 K | 1.25 ± 0.069

CCCCCC[n+]1ccccc1.O=S(=O)([N-]S(=O)(=O)C(F)(F)F)C(F)(F)F [1-hexylpyridinium bis(trifluromethylsulfonyl)imide]
[3]
Conditions | mass density [kg/m3]
293.15 K | 1389.16 ± 1.1
298.15 K | 1384.56 ± 1.1
299.15 K | 1383.67 ± 1.1
303.15 K | 1380.22 ± 1.1
313.15 K | 1371.26 ± 1.1
323.15 K | 1362.38 ± 1.1
333.15 K | 1353.54 ± 1.1
343.15 K | 1344.76 ± 1.1
353.15 K | 1336.02 ± 1.1

— the NIST ThermoML archive (doi:10.1016/j.jct.2015.06.023)
